Results reported in publication PMC8206213, “An L-2-hydroxyglutarate biosensor based on specific transcriptional regulator LhgR” (Nature Communications, 2021).
Where “and” joins values, the source holds several entries; their conditions need not be identical. Identical values can stand only once. Entries after “also recorded” stand apart in the source; their conditions may differ.

How the values were obtained:
[1] = system: LHGFR0N7C; assay: Influence of other compounds on the response of purified LHGFR0N7C to L-2-HG; format: binding, Pseudomonas putida W619
Outline: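 Purified L-2-HG biosensors were mixed 3:1 with test compounds in 50 mM Tris-HCl pH 7.4, excited at 430 nm, and the 528 nm (Venus)/485 nm (mTFP) emission was read. Responses were fitted with a Hill model giving apparent Kd and Hill slope.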

[2] = system: LHGFR0N3C expressed in HEK293FT cells; assay: Specificity of LHGFR0N3C expressed in permeabilized HEK293FT cells, 1 mM compounds; format: cell-based, human (HEK293FT cells)
Method: (§1) To characterize the sensitivity and specificity of LHGFR expressed in HEK293FT cells, cells were trypsinized 48 h following transfection and suspended in 1× Hank’s balanced salt solution supplemented with 20 mM HEPES. […] Digitonin at a concentration of 10 μM was used to induce cell permeabilization and deplete intracellular L-2-HG for in vivo response curves construction. Then, the fluorescence intensities were determined by a SpectraMax i3 fluorescence plate reader (Molecular Devices, USA) with excitation at 430 nm and emission at 485 nm (mTFP) and 528 nm (Venus). Basal L-2-HG concentration in HEK293FT cells under physiological conditions was determined by substituting the emission ratios of non-permeabilized HEK293FT cells into the calibrated in vivo response curves.

[3] = system: LHGFR0N3C expressed in E. coli BL21(DE3); assay: Specificity of LHGFR0N3C expressed in E. coli BL21(DE3), 1 mM compounds; format: cell-based; details: for Emission ratio: 1 mM compound, Fig. 5c
Method: (§2) To characterize the sensitivity and specificity of LHGFR expressed in E. coli BL21(DE3), 90 μL cell suspensions following 8 h carbon starvation were mixed with 10 μL increasing concentrations of L-2-HG or other compounds, and then added into a black 96-well plate (total 100 μL/per well), the fluorescence intensities were determined using an EnSight microplate reader (PerkinElmer, USA) and the following instrument settings: excitation at 430 nm, emission at 485 nm (mTFP) and 528 nm (Venus), time intervals of 5 min, the temperature at 37 °C, and shake at 180 rpm.

[4] = system: LHGFR0N7C expressed in HEK293FT cells; assay: Specificity of LHGFR0N7C expressed in permeabilized HEK293FT cells, 1 mM compounds; format: cell-based, human (HEK293FT cells); details: Supplementary Fig. 17d; Control about 1
Method: as §1

[5] = system: LHGFR0N7C expressed in E. coli BL21(DE3); assay: Specificity of LHGFR0N7C expressed in E. coli BL21(DE3), 1 mM compounds; format: cell-based; details: Supplementary Fig. 13c
Method: as §2

[6] = system: LHGFR0N3C; assay: Specificity of purified LHGFR0N3C, emission ratio with 240 μM compounds; format: binding, Pseudomonas putida W619; details: 240 μM compound
[7] = system: LhgR; assay: EMSA, effect of compounds on LhgR binding to the lhgO promoter region F1; set-up: species or system Pseudomonas putida W619; details: 50 mM compound, 10 nM F1, 60 nM LhgR
Outline: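 Purified LhgR was preincubated 15 min at 30 °C with candidate effectors (L-lysine, 5-aminovalerate, glutarate, L-2-HG, D-2-HG, 2-KG, succinate), then 30 min at 30 °C with 10 nM F1 or F2 DNA. Buffer: 10 mM Tris-HCl pH 7.4, 50 mM KCl, 10% glycerol, 1 mM DTT. Shift seen on 6% native PAGE with SYBR green I.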

O=C(O)CC[C@H](O)C(=O)O [L-2-HG, L-2-Hydroxyglutarate]
Emission ratio of 528/485 ([1]; L-2-HG concentration 0.01, in the absence of 2-KG, Suppl. Fig. 9h): 1.669 and 1.681 and 1.673
Emission ratio of 528/485 ([1]; L-2-HG concentration 0.01, in the absence of D-2-HG, Suppl. Fig. 9f): 1.668 and 1.665 and 1.6772
Emission ratio of 528/485 ([1]; L-2-HG concentration 0.01, in the presence of 2-KG, Suppl. Fig. 9h): 1.723
Emission ratio of 528/485 ([1]; L-2-HG concentration 0.01, in the presence of D-2-HG, Suppl. Fig. 9f): 1.965 and 1.961 and 1.978
Emission ratio of 528/485 ([1]; L-2-HG concentration 0.1, in the absence of D-2-HG, Suppl. Fig. 9f): 1.677 and 1.673 and 1.693
Emission ratio of 528/485 ([1]; L-2-HG concentration 0.1, in the presence of D-2-HG, Suppl. Fig. 9f): 1.971 and 1.964 and 1.956
Emission ratio of 528/485 ([1]; L-2-HG concentration 0.2, in the absence of D-2-HG, Suppl. Fig. 9f): 1.691 and 1.69 and 1.731
Emission ratio of 528/485 ([1]; L-2-HG concentration 0.2, in the presence of D-2-HG, Suppl. Fig. 9f): 1.971 and 1.94 and 1.9794
Emission ratio of 528/485 ([1]; L-2-HG concentration 1, in the absence of D-2-HG, Suppl. Fig. 9f): 1.801 and 1.777 and 1.826
Emission ratio of 528/485 ([1]; L-2-HG concentration 1, in the presence of D-2-HG, Suppl. Fig. 9f): 2.027 and 1.982 and 2.045
Emission ratio of 528/485 ([1]; L-2-HG concentration 2, in the absence of D-2-HG, Suppl. Fig. 9f): 1.915 and 1.897 and 1.932
Emission ratio of 528/485 ([1]; L-2-HG concentration 2, in the presence of D-2-HG, Suppl. Fig. 9f): 2.096 and 2.057 and 2.13
Emission ratio of 528/485 ([1]; L-2-HG concentration 10, in the absence of D-2-HG, Suppl. Fig. 9f): 2.29 and 2.251 and 2.3138
Emission ratio of 528/485 ([1]; L-2-HG concentration 10, in the presence of D-2-HG, Suppl. Fig. 9f): 2.341 and 2.308 and 2.373
Emission ratio of 528/485 ([1]; L-2-HG concentration 20, in the absence of 2-KG, Suppl. Fig. 9h): 2.356 (2×) and 2.408
Emission ratio of 528/485 ([1]; L-2-HG concentration 20, in the absence of D-2-HG, Suppl. Fig. 9f): 2.392 and 2.365 and 2.398
Emission ratio of 528/485 ([1]; L-2-HG concentration 20, in the presence of 2-KG, Suppl. Fig. 9h): 2.43 and 2.42 and 2.428
Emission ratio of 528/485 ([1]; L-2-HG concentration 20, in the presence of D-2-HG, Suppl. Fig. 9f): 2.458 and 2.457 and 2.465
Emission ratio of 528/485 ([1]; L-2-HG concentration 100, in the absence of 2-KG, Suppl. Fig. 9h): 2.538 and 2.5321 and 2.598
Emission ratio of 528/485 ([1]; L-2-HG concentration 100, in the absence of D-2-HG, Suppl. Fig. 9f): 2.581 and 2.561 and 2.566
Emission ratio of 528/485 ([1]; L-2-HG concentration 100, in the presence of 2-KG, Suppl. Fig. 9h): 2.5747 and 2.606 and 2.576
Emission ratio of 528/485 ([1]; L-2-HG concentration 100, in the presence of D-2-HG, Suppl. Fig. 9f): 2.5851 and 2.631 and 2.587
Emission ratio of 528/485 ([1]; L-2-HG concentration 200, in the absence of 2-KG, Suppl. Fig. 9h): 2.539 and 2.563 and 2.555
Emission ratio of 528/485 ([1]; L-2-HG concentration 200, in the absence of D-2-HG, Suppl. Fig. 9f): 2.5575 and 2.555 and 2.59
Emission ratio of 528/485 ([1]; L-2-HG concentration 200, in the presence of 2-KG, Suppl. Fig. 9h): 2.617 and 2.618 and 2.612
Emission ratio of 528/485 ([1]; L-2-HG concentration 200, in the presence of D-2-HG, Suppl. Fig. 9f): 2.597 and 2.613 and 2.641
Emission ratio of 528/485 ([1]; L-2-HG concentration 1000, in the absence of 2-KG, Suppl. Fig. 9h): 2.624 and 2.621 and 2.641
Emission ratio of 528/485 ([1]; L-2-HG concentration 1000, in the absence of D-2-HG, Suppl. Fig. 9f): 2.621 and 2.615 and 2.63
Emission ratio of 528/485 ([1]; L-2-HG concentration 1000, in the presence of 2-KG, Suppl. Fig. 9h): 2.674 and 2.614 and 2.6567
Emission ratio of 528/485 ([1]; L-2-HG concentration 1000, in the presence of D-2-HG, Suppl. Fig. 9f): 2.625 and 2.6112 and 2.6354
Emission ratio of 528/485 ([1]; L-2-HG concentration 2000, in the absence of 2-KG, Suppl. Fig. 9h): 2.674 and 2.655 and 2.638
Emission ratio of 528/485 ([1]; L-2-HG concentration 2000, in the absence of D-2-HG, Suppl. Fig. 9f): 2.642 and 2.658 and 2.618
Emission ratio of 528/485 ([1]; L-2-HG concentration 2000, in the presence of 2-KG, Suppl. Fig. 9h): 2.683 and 2.662 and 2.678
Emission ratio of 528/485 ([1]; L-2-HG concentration 2000, in the presence of D-2-HG, Suppl. Fig. 9f): 2.621 and 2.633 and 2.649
Emission ratio ([1]; Suppl. Fig. 9b, L-2-HG alone or with the compound, three replicates): 2.613 and 2.611 and 2.604
Increase of the emission ratio of LHGFR0N3C ([2]; 10 μM digitonin-permeabilized HEK293FT cells): Only exogenous L-2-HG could significantly increase the emission ratio
Normalized emission ratio ([2]; 1 mM compound, cells permeabilized with 10 μM digitonin, normalized to control): 1.418 and 1.367 and 1.404
Emission ratio ([3]; 0 min): 1.025 and 0.9964 and 0.9897
Emission ratio ([3]; 5 min): 1.0102 and 1.019 and 1.007
Emission ratio ([3]; 10 min): 1.0776 and 1.069 and 1.057
Emission ratio ([3]; 15 min): 1.152 and 1.136 and 1.118
Emission ratio ([3]; 20 min): 1.219 and 1.203 and 1.181
Emission ratio ([3]; 25 min): 1.256 and 1.2441 and 1.233
Emission ratio ([3]; 30 min): 1.305 and 1.29 and 1.273
Emission ratio ([3]; 35 min): 1.298 and 1.29 and 1.292
Emission ratio ([3]; 40 min): 1.314 and 1.317 and 1.304
Emission ratio ([3]; 45 min): 1.326 and 1.316 and 1.3122
Emission ratio ([3]; 50 min): 1.332 and 1.331 and 1.305
Emission ratio ([3]; 55 min): 1.343 and 1.33 and 1.32
Emission ratio ([3]; 60 min): 1.3375 and 1.331 and 1.312
Emission ratio ([3]; 65 min): 1.326 and 1.339 and 1.336
Emission ratio ([3]; 70 min): 1.339 and 1.343 and 1.334
Emission ratio ([3]; 75 min): 1.32 and 1.336 and 1.325
Emission ratio ([3]; 80 min): 1.332 and 1.339 and 1.343
Emission ratio ([3]; 85 min): 1.326 and 1.34 and 1.332
Emission ratio ([3]; 90 min): 1.323 and 1.316 and 1.34
Increase of the emission ratio in E. coli BL21(DE3) ([3]; 1 mM exogenous compound): could significantly increase the emission ratio
Normalized emission ratio [4]: 1.4262 and 1.43 and 1.452
normalized emission ratio of biosensor expressed in E. coli ([5]; time 0 min): 1.016 and 1.006 and 1.026
normalized emission ratio of biosensor expressed in E. coli ([5]; time 5 min): 1.0991 and 1.081 and 1.1
normalized emission ratio of biosensor expressed in E. coli ([5]; time 10 min): 1.206 and 1.179 and 1.184
normalized emission ratio of biosensor expressed in E. coli ([5]; time 15 min): 1.293 and 1.273 and 1.276
normalized emission ratio of biosensor expressed in E. coli ([5]; time 20 min): 1.341 and 1.328 and 1.319
normalized emission ratio of biosensor expressed in E. coli ([5]; time 25 min): 1.35 and 1.357 and 1.333
normalized emission ratio of biosensor expressed in E. coli ([5]; time 30 min): 1.374 and 1.365 and 1.366
normalized emission ratio of biosensor expressed in E. coli ([5]; time 35 min): 1.386 and 1.367 and 1.374
normalized emission ratio of biosensor expressed in E. coli ([5]; time 40 min): 1.391 and 1.384 and 1.386
normalized emission ratio of biosensor expressed in E. coli ([5]; time 45 min): 1.414 and 1.39 and 1.389
normalized emission ratio of biosensor expressed in E. coli ([5]; time 50 min): 1.407 and 1.378 and 1.396
normalized emission ratio of biosensor expressed in E. coli ([5]; time 55 min): 1.415 and 1.39 and 1.4085
normalized emission ratio of biosensor expressed in E. coli ([5]; time 60 min): 1.43 and 1.394 and 1.408
normalized emission ratio of biosensor expressed in E. coli ([5]; time 65 min): 1.417 and 1.4114 and 1.411
normalized emission ratio of biosensor expressed in E. coli ([5]; time 70 min): 1.41 and 1.402 and 1.422
normalized emission ratio of biosensor expressed in E. coli ([5]; time 75 min): 1.393 and 1.405 and 1.423
normalized emission ratio of biosensor expressed in E. coli ([5]; time 80 min): 1.412 and 1.416 and 1.423
normalized emission ratio of biosensor expressed in E. coli ([5]; time 85 min): 1.389 and 1.408 and 1.4341
normalized emission ratio of biosensor expressed in E. coli ([5]; time 90 min): 1.404 and 1.406 and 1.429
Emission ratio [6]: 2.0582 and 2.052 and 2.059
Effect on LhgR binding to the lhgO promoter region F1 [7]: prevents LhgR binding to the lhgO promoter region; also recorded: release of LhgR from fragments F1 was observed only in the presence of L-2-HG
